# Assay results taken from patent US20240166702A1, “COMPOSITIONS AND METHODS FOR TREATING BREAST CANCER” (Arizona Board of Regents on Behalf of The University of …, priority 2021, published 2024).
# Assays:
# MDA-MB-468 cells [1] = assay type: cell-based, human
# Experimental: A. Peptide sequence alignment of modified and stabilized peptides (−) indicates conserved residues, (/) indicates a deleted residue. Modified residues used for staples are (S)-2-(((9H-flouren-9-yl) methoxy) caronylamino)-2-methyl-hept-6-enoic acid (5) and (R)-2-(((9H-flouren-9-yl) methoxy) caronylamino)-2-methyl-dec-9-enoic acid (8). PTD4=Protein Transduction Domain. Ac=acetylation of 5′ end and NH2=amidation of 3′ end. B. MDA-MB-468 cells were treated with 10 μM of the indicated peptide for 3 days. Cell viability was measured using an MTT assay. Vehicle control represents 100%. C. A predicted peptide structure of SNX1.3 was generated using SWISSMODEL with negative (blue) and positive (red) residues highlighted.
# (§1) B. MDA-MD-468 cells were transduced with an IPTG inducible shEGFR targeted against the 3′ UTR of EGFR. These cells were incubated with IPTG for the indicated number of days and lysates were generated to confirm knock down of EGFR. C. In tandem with B., cells were plated and incubated +/−IPTG for 2 days prior to drug treatment. […] After 5 days of IPTG and 3 days of peptide treatment viability was measured using an MTT assay.
# Predicted peptide structure including negatively (blue) and positively (red) charged residues was used to guide the modifications (FIG. 2C).
# BT20 cells = assay type: cell-based, human
# Experimental: as §1
# To investigate rt-EGFR, the role of the Sorting Nexins to regulate EGFR trafficking to the lysosome for degradation was investigated. To determine if SNX1 domains could be therapeutically mimicked, three SNX1-based peptides were synthesized, each of which was generated in tandem with a Cell Penetrating Peptide domain (PTD-4) to allow for intracellular penetration^19 (SNX1.1, 1.2 and 1.3, FIG. 2A). The ability of each peptide to reduce cell survival in the triple negative breast cancer cell line BT20 was evaluated.
# EGFR activity is known to promote the activity of other RTKs, including those in the EGFR family (HER2, HER3 and HER4) and the c-Met receptor (Puri and Salgia 2008; Linklater et al. 2016). Therefore, the ability of SNX1.3 to inhibit 2D migration was next evaluated, both in response to EGF as well as other migration-inducing ligands. […] Cells were plated on plastic and allowed to migrate into an artificial wound over 12 hours. […] To determine if this inhibitory effect was restricted to EGF-induced migration, the ability of SNX1.3 to impact neuregulin (NRG1) was also tested and hepatic growth factor (HGF)-induced migration. NRG is the ligand for HER3 and HER4, and HGF the ligand for the c-Met receptor, both of which are receptor tyrosine kinases. In addition, soluble hyaluronic acid (HA)-induced migration, the ligand for CD44, was also tested [a non-kinase membrane receptor that induces migration (Louderbough, Lopez, and Schroeder 2010)]. […] Note that all receptors undergo endocytosis, with the RTKs primarily undergoing clathrin-dependent endocytosis, while CD44 endocytosis is clathrin-independent (Dutta and Donaldson 2015).
# [2] = tested on: A549 lung cancer line with wildtype EGFR; test: MTT cell viability assay in A549 cells; assay type: cell-based; details: 3 days
# [3] = tested on: MDA-MB-468 cells with reduced EGFR; test: MTT viability in MDA-MB-468 cells with shRNA knock down of EGFR; assay type: cell-based, human; details: shRNA to the 3′UTR of EGFR, 5 days IPTG, 3 days peptide, MTT assay
# Experimental: as §1
# No effect on CHO cells that lack EGFR expression was observed.
# [4] = Toxicity evaluation in C57Bl/6J female mice; assay type: in vivo, mouse; details: 5.0 or 10.0 μg/g body weight, 3×/week IV, 2 weeks; cSNX1.3 versus cPTD4; data not shown
# Experimental: Mice are continually bred to activate the pregnancy-dependent WAP promoter, which drives expression of the EGFR ligand Transforming Growth Factor alpha (TGFα) strictly to the mouse mammary glands. This model stochastically forms unifocal mammary adenocarcinomas through a process that begins with mammary hyperplasia, followed by tumor formation over approximately 8 months. […] No difference in weight or behavior or grooming was observed. Therefore 10 μg/g body weight was used for subsequent studies.
# nuclear localized EGFR = test: Subcellular protein fractionation for EGFR nuclear localization; assay type: cell-based, human; details: MDA-MB-468 serum starved, EGF and peptide for 2 hours
# Experimental: Cells were then fractionated and verified by HSP90 cytosolic protein, Bap31 membrane protein, or HDAC nuclear protein. B. MDA-MB-468 cells were serum starved overnight then stimulated with EGF on ice for 10 minutes. […] B. MDA-MB-468 cells were serum starved overnight then incubated on ice with 10 ng/mL EGF for 10 minutes. […] C. […] After the second week, the number of secondary mammospheres were counted.
# MDA-MB-468 were serum starved overnight then incubated with EGF and peptide for 2 hours to allow for nuclear localization of EGFR. Subcellular protein fractionation was then performed to isolate cytosolic, membrane, and nuclear protein fractions (FIG. 5A).
# pAkt and dpERK = test: EGF-dependent Akt and ERK activation in MDA-MB-468 cells; assay type: cell-based, human; details: MDA-MB-468, EGF stimulated
# MDA-MB-468 cells [5] = test: Bulk RNAseq of treated MDA-MB-468 cells; assay type: cell-based, human; details: MDA-MB-468, bulk RNAseq in triplicate
# Experimental: C. WAP-TGFα tumors treated with either SNX1.3 or cPTD4 were analyzed for NK cells using an anti-NKp46 antibody. Inset is 20×.
# A-C. […] A. A gene ontology enrichment bubble plot was produced, and the top 30 enriched GO terms are shown. Color indicates −1*log 10(FDR) for significance of overlap (the higher the more significant). X axis=log odds ratio for genes annotated to that GO term. […] C. RT-PCR analysis of IL1RL1.
# In addition to bioinformatics identification of CTLs in these tumors, similar analysis implicated recruitment of NK cells as well (FIG. 9). As a part of the innate immune system, NK cells should only be recruited if a change has occurred to display NK-activating antigens. While there are many such antigens expressed under a variety of immune modulation conditions, some are highly associated with activation of NK cells against cancers, such as ULBP2/3 or MICA/MICB32.
# A significant impact on the immune response, especially IL-1 dependent pathways was identified (FIG. 12A). IL-1-specific genes were searched and an upregulation in several IL1R genes, including IL1R2, IL1RL1, IL1RL2, IL1RAP and IL1RN (FIG. 12B) were found. […] It is hypothesized that the transient and targeted activation of the IL1/TLR pathway in the tumors may allow for the immune system to become active where previously these tumors were immune suppressive. […]
# [6] = target: EGFR kinase domain / SNX1 Bar domain (Homo sapiens, UniProt P00533); test: MST binding of EGFR kinase domain with SNX1 Bar domain and peptides; details: EGFR kinase domain 50 nM
# Chain of EGFR kinase domain / SNX1 Bar domain (P00533 712-979 limits assumed): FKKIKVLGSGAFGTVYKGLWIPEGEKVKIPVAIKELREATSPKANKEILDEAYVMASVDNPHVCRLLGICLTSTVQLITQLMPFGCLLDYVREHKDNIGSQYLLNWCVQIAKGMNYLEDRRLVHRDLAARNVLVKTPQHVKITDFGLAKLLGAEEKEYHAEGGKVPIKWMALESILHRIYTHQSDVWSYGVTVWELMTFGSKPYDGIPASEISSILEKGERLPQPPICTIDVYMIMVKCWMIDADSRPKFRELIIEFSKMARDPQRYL
smiles,measurement,setting,value
CC[C@H](C)[C@H](NC(=O)[C@@H](NC(=O)[C@H](Cc1c[nH]cn1)NC(=O)[C@H](CC(N)=O)NC(=O)[C@H](CCCCN)NC(=O)[C@H](C)NC(=O)[C@H](CCCNC(=N)N)NC(=O)[C@H](C)NC(=O)[C@H](CCC(N)=O)NC(=O)[C@H](CCCNC(=N)N)NC(=O)[C@H](C)NC(=O)[C@H](C)NC(=O)[C@H](C)NC(=O)[C@H](CCCNC(=N)N)NC(=O)[C@H](C)NC(=O)[C@H](Cc1ccc(O)cc1)NC(C)=O)C(C)C)C(=O)N[C@@H](CCCCN)C(=O)N[C@@H](Cc1ccc(O)cc1)C(=O)N[C@@H](CC(C)C)C(=O)N[C@@H](CCC(=O)O)C(=O)N[C@H](C(=O)N[C@@H](CC(C)C)C(=O)N[C@@H](CC(C)C)C(=O)N[C@@H](Cc1ccc(O)cc1)C(=O)N[C@@H](CO)C(=O)N[C@@H](CCC(N)=O)C(=O)N[C@@H](CCC(N)=O)C(=O)N[C@@H](CCC(N)=O)C(=O)N[C@@H](CC(C)C)C(=O)N[C@@H](C)C(=O)N[C@@H](CCCCN)C(=O)N[C@@H](Cc1ccc(O)cc1)C(=O)N[C@@H](Cc1c[nH]c2ccccc12)C(=O)N[C@@H](CCC(=O)O)C(=O)N[C@@H](C)C(=O)N[C@@H](Cc1ccccc1)C(=O)N[C@@H](CC(C)C)C(N)=O)[C@@H](C)O [cSNX1.3],IC50,MDA-MB-468 cells [1]; 9 h,7.5 µM
same,efficacy after C- and N-terminal peptide end-capping,"MDA-MB-468 cells [1]; MDA-MB-468, 10 μM peptide for 3 days, MTT assay",increased efficacy
same,"inhibition of cell survival, compared with Sapitinib","MDA-MB-468 cells [1]; MDA-MB-468, 3 days, MTT assay",more effective than Sapitinib
same,IC50,BT20 cells,25 µM
same,"inhibition of cell survival, compared with Sapitinib","BT20 cells; BT20, 3 days, MTT assay",more effective than Sapitinib
same,"inhibition of cell survival, compared with Sapitinib",[2],more effective than Sapitinib
same,efficacy in cells with reduced EGFR,[3],lacked significant efficacy
same,difference in weight or behavior or grooming,[4],No difference
same,nuclear localized EGFR,nuclear localized EGFR,loss of nuclear localized EGFR
same,immediate Akt or ERK activation,pAkt and dpERK; 15′,no impact
same,"pAkt and dpERK activation, late",pAkt and dpERK; after an hour (60′),suppressed
same,"NK activating antigens ULBP2, ULBP3, MICA and MICB",MDA-MB-468 cells [5],increased
same,PDL1 expression,MDA-MB-468 cells [5],did not alter
same,binding of EGFR to SNX1,[6],competitively inhibits
